Experimental data: patent US11859209B2, “Method for inducing osteogenic differentiation” (KYOTO UNIVERSITY, priority 2017, dated 2024)
Each block holds one molecule with its values, some of them ahead of it.

Legend:
iPS cells = assay: Amount of calcium salt deposition (OCPC), one-procedure osteogenic differentiation method; format: cell-based, human
Description: On-feeder iPS cells were cultured under feeder-free conditions on Matrigel coating in mTeSR (product name, Stemcell Technologies) for three days (D-3 to D0). The cells were seeded on gelatin coating and cultured in a mixed culture medium of osteogenic induction medium (OI medium) and mTeSR (mixing ratio=4:1) supplemented with a ROCK inhibitor (ROCKi) and retinoic acid (RA) for the first two days (D0 to D2). The cells were then cultured in osteogenic induction medium supplemented with retinoic acid (RA) until D10. As a control, cells were cultured in the same culture medium without retinoic acid.
iPS cells were cultured under feeder-free conditions on laminin coating in StemFit AK03N (product name, Ajinomoto Healthy Supply), and then cultured in a mixed culture medium of osteogenic induction medium (OI medium) and mTeSR (mixing ratio=4:1) supplemented with a ROCK inhibitor (ROCKi) and retinoic acid (RA) for the first two days (D0 to D2). The cells were then cultured in osteogenic induction medium supplemented with retinoic acid (RA) until D10. As a control, cells were cultured in the same culture medium without retinoic acid.
(§1) For the evaluation of calcified nodule-forming capacity, the cultured cells were fixed in ethyl alcohol, reacted with alizarin red staining solution for 10 minutes and washed. The positive nodules were evaluated qualitatively. Calcium salt deposition was determined quantitatively by measuring the intensity of color produced by o-cresolphthalein complexon (OCPC) solution.
Next, induction of osteogenic differentiation via BMP and WNT was investigated using inhibitors against them. Cells were cultured in culture medium supplemented with a BMP inhibitor (LDN) or a WNT inhibitor (IWR1) for 10 days, and the amount of calcium salt deposition was determined. […] The results confirmed that both of BMP and WNT signals are implicated in the induction of osteogenic differentiation by retinoic acid.
Cells were cultured in culture medium supplemented with BMS 493, which is an antagonist against all the retinoic acid receptors (pan-RAR antagonist) for 10 days, and the amount of calcium salt deposition was determined.
Next, the effects of siRNAs on each RAR were analyzed. […] However, addition of siRNAs against RARα (α#1 and α#2) and siRNAs against RARβ (β#1 and β#2) reduced the bone-forming capacity. […] In the figure, CTL indicates cell culture supplemented with a control siRNA, and (−) indicates cell culture with no siRNA.
Cells were subjected to the one-procedure osteogenic differentiation method in osteogenic induction medium supplemented with a retinoic acid receptor (RAR) agonist instead of retinoic acid (RA). The amount of calcium salt deposition was determined on day 10. As with addition of retinoic acid, the amount of calcium salt deposition was increased by the addition of the RARα agonists Am 580 (200 nM) and Am 80 (1 μM), or the RARβ agonists CD2314 (3 μM) and AC 55649 (3 μM).

[1] = system: iPS cells derived from osteogenesis imperfecta patients having abnormalities of the COL1A1 gene; assay: Expression of ER stress-related gene BiP in cells induced from OI patient-derived iPS cells; format: cell-based, human; details: 100 nM added from day 2, assessed on day 10; FIG. 21
Source text: (§2) iPS cells (OI#1-1 and OI#2-1) were established from two OI patients (OI#1 and OI#2) having an abnormal COL1A1 gene. The respective mutations in the COL1A1 gene in the iPS cells were restored by genome editing technology to generate rescued iPS cells (resOI#1-1 and resOI#2-1). These iPS cells and standard iPS cells (WT1, 414C2; WT2, 409B2) were subjected to induction of osteogenic differentiation by the one-procedure osteogenic differentiation method. On day 10 of induction, the cells were compared in terms of the capacity of calcified nodule formation, the amount of calcium salt deposition, the expression of an ER stress-related gene, and the capacity of type I collagen secretion.
(§3) Accordingly, the inventors investigated whether the one-procedure osteogenic differentiation method can recapitulate the effects of an mTOR inhibitor. Rapamycin (10 nM) or everolimus (100 nM) was added to the culture medium from day 2 of the induction, and differentiation capacity was assessed on day 10.

[2] = system: iPS cells derived from osteogenesis imperfecta patients having abnormalities of the COL1A1 gene; assay: Calcium salt deposition of cells induced from OI patient-derived iPS cells; format: cell-based, human; details: 100 nM added from day 2, assessed on day 10; FIG. 20
Description: as §1, §2, §3

[3] = system: iPS cells derived from osteogenesis imperfecta patients having abnormalities of the COL1A1 gene; assay: Alizarin red staining of cells induced from OI patient-derived iPS cells; format: cell-based, human; details: 100 nM added from day 2, assessed on day 10; FIG. 19
Description: as §1, §2, §3

[4] = system: iPS cells derived from osteogenesis imperfecta patients having abnormalities of the COL1A1 gene; assay: Type I collagen secretion by immunostaining with anti-type I collagen antibody, OI patient-derived iPS cells; format: cell-based, human; details: 100 nM added from day 2, assessed on day 10; FIG. 22
Source text: as §2, §3

[5] = system: bone defects of 4 mm in diameter created in the cranium of NOD-SCID mice; assay: Transplantation of day 7 induced cells into cranial bone defects, micro-CT and histology after six weeks; details: transplanted cells cultured in osteogenic induction medium supplemented with retinoic acid, FIG. 8B
[6] = day 10, agonist instead of retinoic acid, 3 μM, FIG. 14
[7] = day 10, agonist instead of retinoic acid, 1 μM, FIG. 14

SMILES: CCCCCCCCc1ccc(-c2ccc(C(=O)O)cc2)cc1 [AC 55649]
amount of calcium salt deposition (iPS cells; [6]): increased

SMILES: CC1(C)CCC(C)(C)c2cc(NC(=O)c3ccc(C(=O)O)cc3)ccc21 [Am 80]
amount of calcium salt deposition (iPS cells; [7]): increased

SMILES: CC1(C)CCC(C)(C)c2cc(C(=O)Nc3ccc(C(=O)O)cc3)ccc21 [Am 580]
amount of calcium salt deposition (iPS cells; day 10, agonist instead of retinoic acid, 200 nM, FIG. 14): increased

SMILES: CC1(C)CC=C(C#Cc2ccccc2)c2cc(/C=C/c3ccc(C(=O)O)cc3)ccc21 [BMS 493]
amount of calcium salt deposition (iPS cells; culture medium supplemented with pan-RAR antagonist for 10 days, induction by RA, FIG. 12): The effects of RA were completely eliminated

SMILES: O=C(O)c1ccc2cc(-c3ccc(O)c(C45CC6CC(CC(C6)C4)C5)c3)ccc2c1 [CD437]
amount of calcium salt deposition (iPS cells; [7]): such effects were not observed

SMILES: CC1(C)CCC(C)(C)c2cc3cc(-c4cc(C(=O)O)cs4)ccc3cc21 [CD2314]
amount of calcium salt deposition (iPS cells; [6]): increased

SMILES: O=C(Nc1cccc2cccnc12)c1ccc(N2C(=O)[C@@H]3[C@H](C2=O)[C@@H]2C=C[C@H]3C2)cc1 [IWR1]
amount of calcium salt deposition (iPS cells; culture medium supplemented with BMP or WNT inhibitor for 10 days, induction by retinoic acid, FIG. 11): increase in calcium salt deposition by retinoic acid was inhibited

SMILES: CC1(C)CCC(C)(C)c2cc(Cn3cccn3)c(/C=C/c3ccc(C(=O)O)cc3)cc21 [R667]
amount of calcium salt deposition (iPS cells; day 10, agonist instead of retinoic acid, 100 nM, FIG. 14): such effects were not observed

SMILES: CO[C@H]1C[C@@H]2CC[C@@H](C)[C@@](O)(O2)C(=O)C(=O)N2CCCC[C@H]2C(=O)O[C@H]([C@H](C)C[C@@H]2CC[C@@H](OCCO)[C@H](OC)C2)CC(=O)[C@H](C)/C=C(\C)[C@@H](O)[C@@H](OC)C(=O)[C@H](C)C[C@H](C)/C=C/C=C/C=C/1C [everolimus]
ER stress (expression of the ER stress-related gene BiP) [1]: suggested reduction of ER stress | amount of calcium salt deposition [2]: improves | capacity of forming alizarin red-positive calcified nodules [3]: improves | Type I collagen secretion and distribution [4]: remarkably improved

tumor formation [5]: no tumor formation was observed
SMILES: CC1=C(/C=C/C(C)=C/C=C/C(C)=C/C(=O)O)C(C)(C)CCC1 [retinoic acid]
